Laboratory results reported in patent publication US20130123201A1, “MODULATION OF CYTOKINE-INDUCED CHRONIC INFLAMMATORY RESPONSES” (UNIVERSITY OF MANITOBA, priority 2010, published 2013).

Experiments:
Assay type in all cases: cell-based
[1] = test system: Human macrophage-like THP-1 cells; test: qRT-PCR of cytokine-induced gene expression in THP-1 cells
Protocol: (§1) Quantitative real-time PCR (qRT-PCR): Human FLS or monocytic THP-1 cells were stimulated with indicated stimulants for 4 hr. RNA was isolated and analyzed for gene expression by qRT-PCR using SuperScript III Platinum Two-Step qRT-PCR Kit with SYBR Green (Invitrogen), according to the manufacturer's instructions, in the ABI PRISM 7000 sequence detection system (Applied Biosystems). Fold changes were calculated using the comparative Ct method, after normalization using 18S rRNA primers.
as §1, with “macrophage-like” for “monocytic”

[2] = test system: Human fibroblast-like synovial (FLS) cells; test: qRT-PCR of cytokine-induced gene expression in FLS cells; settings: some of the responses
Protocol: Cell culture and isolation: Human fibroblast-like synovial (FLS) cells were isolated from synovial tissues obtained from patients […]. Briefly, the tissues were digested with 1 mg/ml collagenase and 0.05 mg/ml hyaluronidase (both obtained from Sigma; Oakville, ON, Canada) in Hanks' balanced salt solution (Gibco) for 1-2 hours at 37° C. The cells were cultured in DMEM media (Gibco) supplemented with sodium pyruvate and non-essential amino acids (referred to as complete DMEM media henceforth), containing […] in a humidified incubator at 37° C. and 10% CO2. […] Cellular cytotoxicity was evaluated after 24 hr stimulation with the various stimulants used in this study by monitoring the release of lactate dehydrogenase (LDH) employing a colorimetric detection kit (Roche Diagnostics, Laval, QC, Canada).
as §1, with “primers. […]” for “primers.”

[3] = test system: Human macrophage-like THP-1 cells; test: ELISA of cytokine/chemokine production in THP-1 tissue culture supernatants
Protocol: ELISA immunoassay: Tissue culture supernatants were centrifuged at 1500× g for 5-7 min to obtain cell-free samples and the aliquots were stored at −20° C. until further use. Production of chemokine Gro-α was monitored in the tissue culture supernatants by ELISA employing human Gro-α DuoSet (R&D Systems Inc.) as per the manufacturer's instructions. Production of cytokine TNF-α was monitored in the tissue culture supernatants using specific antibody pairs from eBioscience, Inc., and production of IL-8 was monitored using specific antibody pairs from R&D Systems, Inc., as per the manufacturer's instructions. The concentration of the cytokines or chemokines in the tissue culture supernatants was evaluated by establishing a standard curve with serial dilutions of the recombinant human cytokines or chemokines as required.
ELISA immunoassay: Tissue culture supernatants were centrifuged at 1500× g for 5-7 min to obtain cell-free samples and the aliquots were stored at −20° C. until further use. Production of chemokine Gro-α was monitored in the tissue culture supernatants by ELISA employing human Gro-α DuoSet (R&D Systems Inc.) per the manufacturer's instructions. Production of cytokine TNF-α was monitored in the tissue culture supernatants using specific antibody pairs from eBioscience, Inc., and production of IL-8 was monitored using specific antibody pairs from R&D Systems, Inc., per the manufacturers' instructions. The concentrations of the cytokines or chemokines in the tissue culture supernatants were evaluated by establishing a standard curve with serial dilutions of the recombinant human cytokines or chemokines as required.
Impact of cationic peptide LL-37 and its synthetic derivatives on IL-32-induced protein production: Human macrophage-like THP-1 cells were stimulated with IL-32 (20 ng/mL) in the presence and absence of cationic peptide LL-37, tissues culture supernatants were monitored for the production of pro-inflammatory cytokines TNF-α and IL-1β, and chemokines after 24 hr of stimulation. […] As LL-37 suppressed IL-32-mediated pro-inflammatory responses, we also evaluated the impact of LL-37 derived synthetic peptides. […] No studies to data have explored the impact of these peptides in the context of chronic inflammation. […] This provides the data that supports further investigation of these peptide candidates as potential therapeutics for diseases characterized by chronic inflammation.

human PBMC = test: ELISA of IL-32-induced TNF-α and IL-1β production in PBMC (ex-vivo)
Description: In order to confirm these activities in a physiologically relevant system, we evaluated the impact of the peptide in an ex-vivo assay using human PBMC, because cells recruited from the circulation are a major component of inflammatory infiltrates. Venous blood was collected from healthy volunteers with informed consent in accordance to a protocol approved by the Institutional Review Board at the University of Manitoba. PBMC was isolated from blood following the teaching of Mookherjee et al. (2009, Systems biology evaluation of immune responses induced by human host defence peptide LL-37 in mononuclear cells. Mol. Biosyst. 5:483-496). PBMC were stimulated with chronic inflammatory cytokine IL-32 (20 ng/ml) in the presence and absence of 5 μM of peptides, LL-37 and its derivatives (Table 7) for 24 hr. The tissue culture supernatants were monitored for the production of pro-inflammatory cytokines TNF-α and IL-1β by ELISA. […] Results shown are an average of four independent biological experiments performed with cells isolated from blood of four different donors ±standard error.

[4] = test system: Human macrophage-like THP-1 cells; test: ELISA of cytokine/chemokine production in THP-1 tissue culture supernatants; settings: both monocytic THP-1 and human FLS cells, data not shown
[5] = THP-1 cells, in the presence of the peptide
[6] = THP-1 cells, in the presence of the peptide, p<0.01
[7] = macrophage-like THP-1 cells, IL-32 20 ng/mL, 24 hr

LL-37: Human cathelicidin cationic host defence peptide, SEQ ID NO: 21, LLGDFFRKSKEKIGKEFKRIVQRIKDFLRNLVPRTES
Suppression of IL-32-induced IL-8 (CXCL8) expression [1, 5]: 30-40% | Suppression of IL-32-induced IL-23 expression [1, 5]: 30-40% | Suppression of IL-32-induced NF-κB1A expression [1, 5]: 30-40% | Suppression of IL-32-induced Gro-α (CXCL1) gene expression [1, 6]: > 50% | Suppression of IL-32-induced IL-6 gene expression [1, 6]: > 50% | Suppression of IL-32-induced TNF-α gene expression [1, 6]: > 50% | Effect on IL-17-induced expression of pro-inflammatory genes or chemokine genes ([1]; human monocytic cells / macrophages, data not shown): not altered | Effect on IL-17-induced transcriptional responses [2]: significantly enhanced | Suppression of IL-32-induced TNF-α production ([3]; THP-1 monocytic cells, ELISA after 24 or 48 hr): > 30% | Suppression of IL-32-induced chemokine Gro-α production ([3]; THP-1 monocytic cells, ELISA after 24 or 48 hr, p<0.05): 12±4% | Effect on IL-32-induced IL-1β production [3, 7]: significantly suppressed | Effect on IL-32-induced TNF-α production [3, 7]: significantly suppressed | Effect on IL-32-induced chemokine production (IL-8, GROα) [3, 7]: not altered | Effect on IL-32-induced IL-1β production (human PBMC; human PBMC, IL-32 20 ng/ml, 5 μM peptide, 24 hr): neutralized | Effect on IL-32-induced TNF-α production (human PBMC; human PBMC, IL-32 20 ng/ml, 5 μM peptide, 24 hr, p<0.05): neutralized | Effect on IL-32 induced pro-inflammatory protein production (FIG. 21 legend) (human PBMC; peripheral blood mononuclear cells): suppression | Effect on IL-17-induced chemokine production [4]: not significantly altered (or modestly enhanced)
